{"source": "patent US20110262464A1", "about": "“Compositions, Kits, and Methods for the Diagnosis, Prognosis, and Monitoring of Cancer Using GOLPH3” (DANAFARBER CANCER INSTITUTE, INC., priority 2008, published 2011)", "key": {"[1]": {"test_system": "WM239A melanoma xenograft tumors", "test": "In vivo rapamycin treatment of xenograft tumors", "parameters": "species or system mouse", "conditions": "WM239A-GOLPH3 tumors; rapamycin 6.0 mg/kg i.p. every other day; day 8, post 4 doses", "experimental": "(§1) For in vivo rapamycin studies, melanoma 1205LU and WM239A cells verified to stably-express empty vector or GOLPH3 were subcutaneously implanted into female nude animals (Taconic) at 5.0×10^5 cells/site on both flanks. Tumors were allowed to reach approximately 100 mm^3, after which time animals were randomized into separate cohorts for treatment with vehicle [5% (vol/vol) PEG400.5% (vol/vol) Tween-80) or rapamycin (6 mg/kg; LC Laboratories; 50 mg/ml stock prepared in 100% ETOH and diluted fresh in vehicle solvent for treatment) by intraperitoneal injection every other day. Tumor volumes and body weights were measured upon drug administration. Tumor volume was determined by measuring in two directions with vernier calipers and formulated as tumor volume=[…]. Growth curves were plotted as mean change in tumor volume for each group, where mean change indicates change in tumor volume at a given time point minus tumor volume at time of initial dose administration. Endpoint scatter plots were plotted as proportion of final dose endpoint tumor volume over respective tumor baseline starting volume. Percent tumor growth inhibition was determined as (1-(T/N))×100, where T is the mean change in tumor volume of the treated group and N is the mean change in tumor volume of the control group at the assay endpoint. Two-tailed t-test calculations were performed using Prism 4 (Graphpad)."}, "[2]": {"test_system": "1205LU melanoma xenograft tumors", "test": "In vivo rapamycin treatment of xenograft tumors", "parameters": "species or system mouse", "conditions": "1205LU-GOLPH3 tumors; rapamycin 6.0 mg/kg i.p. every other day; day 8, post 4 doses", "experimental": "as §1"}}, "data": [{"smiles": "CO[C@H]1C[C@@H]2CC[C@@H](C)[C@@](O)(O2)C(=O)C(=O)N2CCCC[C@H]2C(=O)O[C@H]([C@H](C)C[C@@H]2CC[C@@H](O)[C@H](OC)C2)CC(=O)[C@H](C)/C=C(\\C)[C@@H](O)[C@@H](OC)C(=O)[C@H](C)C[C@H](C)/C=C/C=C/C=C/1C", "note": "[rapamycin]", "values": [{"measurement": "percent tumor growth inhibition (% TGI)", "setting": "[1]", "value": 80.9, "unit": "%"}, {"measurement": "percent tumor growth inhibition (% TGI)", "setting": "[2]", "value": 81.9, "unit": "%"}]}]}
